This is an account of results in article PMC3707518 (Journal of nuclear medicine : official publication, Society …, 2010).

Data set [1] relates to β2*-nAChR. The conditions noted are these: cited from earlier work.
Data set [2] concerns the target T1, β2*-nAChRs (Homo sapiens, UniProt P17787). Nature of the data set: ^123I-5-IA SPECT regional uptake. Type of data set: in vivo.
The test system of data set [3] is β2*-nAChRs. The conditions noted are these: nonhuman primates, cited from earlier work.
The conditions of data set [4]: cited from earlier work.
The target in data set [5] is T1, β2*-nAChRs. The conditions noted are these: 3 h after smoking challenge; representative subject, Fig. 4.
The nature of data set [6]: Plasma nicotine and cotinine levels, smoking challenge and abstinence check.
Data set [7] addresses T1, β2*-nAChRs. The conditions noted are these: 3.1 h; cited from earlier work.
The conditions of data set [8]: dependent smokers; cited from earlier work.

Several values for one entry are separate records, joined by “and”; a condition that tells them apart may be missing. Equal values may be shown once. Bounds are passed on as bounds.

T1 sequence (P17787 26-502): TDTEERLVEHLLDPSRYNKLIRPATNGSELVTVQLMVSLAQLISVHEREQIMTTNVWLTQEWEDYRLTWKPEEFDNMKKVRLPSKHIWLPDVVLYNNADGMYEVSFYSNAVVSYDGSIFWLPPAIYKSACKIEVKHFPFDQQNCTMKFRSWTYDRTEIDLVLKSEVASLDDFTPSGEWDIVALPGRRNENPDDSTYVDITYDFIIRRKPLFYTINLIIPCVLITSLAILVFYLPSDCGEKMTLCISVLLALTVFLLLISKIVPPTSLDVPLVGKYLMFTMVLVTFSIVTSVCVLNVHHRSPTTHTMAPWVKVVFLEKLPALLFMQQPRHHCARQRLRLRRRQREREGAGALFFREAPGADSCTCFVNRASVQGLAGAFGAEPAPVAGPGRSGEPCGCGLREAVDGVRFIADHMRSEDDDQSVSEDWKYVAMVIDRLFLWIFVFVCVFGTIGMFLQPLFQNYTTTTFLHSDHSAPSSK

For `c1cncc(OC[C@@H]2CCN2)c1` [A-85380, 3-[2(S)-2-azetidinylmethoxy]pyridine], in data set [1], the Affinity entry is “high affinity” and the “Selectivity for the β2*-nAChR” value is reported as “high selectivity”.

Take `[123I]c1cncc(OC[C@@H]2CCN2)c1` [^123I-5-IA, 5-^123I-iodo-85380]: the “Nondisplaceable uptake VND/fp” value in data set [2] (average and range across subjects, brain, after smoking to satiety) is 19.4 ± 5.8 mL·cm^−3 and 15–28 mL·cm^−3. Moreover, the “Average VND without correcting for fp” value in data set [2] (not corrected for plasma free fraction) stood at 7.03 ± 1.92 kBq/cm^3. Further, the “Nondisplaceable binding in the thalamus” value in data set [3] (inferred from specific binding) is recorded as “about 30%”. In addition, in data set [3], the “Specific binding in the thalamus” value is on record as “about 70%”. For the same molecule, in data set [4], the Safety entry was “safe and nontoxic”.

In the case of `CN1CCC[C@H]1c1cccnc1` [nicotine], the Maximal occupancy in data set [5] was 69.1%. Also, in data set [6] (after initiation of tobacco smoking, representative subject, Fig. 2B), the “Time of highest nicotine concentration” value is 20 min. For the same molecule, the “Blood nicotine area under curve (60 min)” value in data set [6] (after smoking to satiety, individual subjects 1-10 and mean ± SD) was 4,864.0 and 3,764.0 and 8,273.0 and 8,124.0 and 8,544.3 ± 7,068.8 and 3,470.0 and 7,153.0 and 7,840.0 and 27,700.0 and 4,488.0 and 9,767.0. Further, the “Nicotine in blood at the time of greatest occupancy” value in data set [7] is recorded as “less than 4 ng/mL”. In data set [8], the “Time for nicotine from tobacco smoke to reach the brain after inhalation” value is recorded as not above 30 s.
